Laboratory results reported in US20050196753A1, “Human coactivator-associated arginine methyltransferase 1 (hCARM1)” (priority 2002, published 2005).

Molecular target: T1, hCARM1 (Homo sapiens, UniProt Q86X55)
T1 construct: evaluate whether the cloned full-length hCARM1 had methylating activity; made in house; host or cells: baculovirus infected insect cells
T1 sequence (Q86X55 1-608): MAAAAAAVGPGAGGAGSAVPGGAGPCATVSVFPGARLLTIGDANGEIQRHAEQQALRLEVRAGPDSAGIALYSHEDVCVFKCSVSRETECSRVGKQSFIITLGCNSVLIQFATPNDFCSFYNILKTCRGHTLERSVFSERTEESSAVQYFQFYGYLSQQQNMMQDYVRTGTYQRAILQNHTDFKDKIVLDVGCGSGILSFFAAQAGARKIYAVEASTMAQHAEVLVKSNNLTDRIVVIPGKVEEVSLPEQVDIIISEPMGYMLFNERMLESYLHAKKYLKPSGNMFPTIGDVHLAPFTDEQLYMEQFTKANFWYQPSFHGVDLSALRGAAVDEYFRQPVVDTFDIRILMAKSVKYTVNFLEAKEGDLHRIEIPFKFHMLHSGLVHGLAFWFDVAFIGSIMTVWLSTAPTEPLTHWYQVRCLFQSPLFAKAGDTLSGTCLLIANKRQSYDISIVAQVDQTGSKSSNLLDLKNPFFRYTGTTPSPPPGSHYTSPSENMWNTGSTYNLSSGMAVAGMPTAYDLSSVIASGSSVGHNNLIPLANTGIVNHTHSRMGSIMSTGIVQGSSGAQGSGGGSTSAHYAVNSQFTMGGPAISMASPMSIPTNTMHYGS
Experiment: Methylation assay: inhibition of hCARM1 mediated methylation of Histone H3
Assay type: biochemical
Conditions: Histone H3 substrate, 30° C. for 1 hr, SDS-PAGE/film
Experimental: Methylation assay protocol: Reactions were performed in IX methylation buffer containing 20 mM Tris.HCl, pH 8.0, 200 mM NaCl and 0.4 mM EDTA. Reactions were assembled with 2.5 ug of Histone H3 and increasing amounts of hCARM1 (0.25 ug, 0.5 ug, 1.25 ug, 2.5 ug, 3.75 ug, 5 ug, or 7.5 ug). A mock reaction where hCARM1 was omitted was used as the negative control. Reactions were incubated at 30° C. for 1 hr. prior to loading on a 10-20% gradient SDS-PAGE. The gel was fixed, dried and exposed to film.
A methylation reaction was performed in order to evaluate whether the cloned full-length hCARM1 had methylating activity. Mouse CARM1 has been previously shown to specifically methylate Histone H3 in vitro and in vivo.

Question: For N[C@@H](CCS)C(=O)O [homocysteine], which “inhibition of hCARM1 mediated methylation” value is on record?
Answer: effectively inhibited
